Data as given in US5863905A, “2',5'-phosphorothioate/phosphodiester oligoadenylates and anti-viral uses thereof” (Temple University-Of The Commonwealth System of Higher …, priority 1997, dated 1999).
Several values for one entry are separate records, joined by “and”; a condition that tells them apart may be missing. Equal values may be shown once. Entries after “also recorded” stand apart in the source; their conditions may differ.

Tests used:
serum phosphodiesterases = test: Stability of 2-5A core derivatives to serum phosphodiesterase; format: in vitro ADME, fetal calf; conditions: for Hydrolysis Products / % Hydrolysis: 300 μM, 37° C.; for Hydrolysis Products: 10% fetal calf serum, 6 h, identified by HPLC; for % Hydrolysis: RPMI-1640 + 10% fetal calf serum, 6 h (A2, A3: 20 min); for hydrolysis (in words): serum-containing medium
Protocol: The stability of authentic 2-5A and phosphorothioate/phosphodiester trimer and tetramer core derivatives (300 μM) was determined by incubation in 200 μL of RPMI-1640 medium supplemented with 10% fetal calf serum in 5% CO2 -in-air at 37° C. Aliquots (30 μL) were removed at time zero and 6 hours. The hydrolysis products were identified by HPLC as described in Kariko et al. , Biochemistry 26: 7127-7135 (1987).
No hydrolysis of the phosphorothioate/phosphodiester trimer core derivatives was observed. However, the phosphorothioate/phosphodiester tetramer core derivatives were hydrolyzed from the 5'- or 2',3'-terminus, depending on the location of the phosphorothioate-substituted internucleotide linkage.

RNase L = test: rRNA cleavage assay in L929 cell extracts (activation of RNase L); format: biochemical; conditions: 1 h at 30° C., > = no activation up to this concentration
Protocol: FIG. 2A represents the results of a ribosomal RNA cleavage assay with 2',5'-phosphorothioate/phosphodiester trimer core 2-5A derivatives. The procedure was performed according to the method of Kariko et al., Biochemistry 26: 7127-7135 (1987). 2-5A oligomer (phosphodiester internucleotide linkage) is also included for comparison. L929 cell extracts were incubated in the absence (lane 1) or presence of p3 A3 at 10^-8 M (lane 2), ARp *ApA at 10^-6 M (lane 3), ASp *ApA at 10^-6 M (lane 4), ApARp *A at 10^-6 M (lane 5), ApASp *A at 10^-6 M (lane 6) or A3 at 10^-6 M (lane 7). The positions of 28S and 18S rRNA are shown; the arrows indicate the positions of the well-characterized specific cleavage products (SCP) of RNase L.
FIG. 2B represents the results of a ribosomal RNA cleavage assay performed according to the method of FIG. 2A with 2',5'-phosphorothioate/phosphodiester trimer 5'-monophosphate derivatives. L929 cell extracts were incubated in the absence (lane 1) or presence of p3 A3 at 2×10^-9 M (lane 2), pA3 at 10^-6 M (lane 3), pARp *ApA at 10^-7 M (lane 4), pASp *ApA at 10^-7 M (lane 5), pApARp *A at 2×10^-9 M (Lane 6), pApASp *A at 10^-7 M (lane 7).
FIG. 3A represents the results of a ribosomal RNA cleavage assay performed according to the method of FIG. 2A with 2',5'-phosphorothioate/phosphodiester tetramer core 2-5A derivatives. 2-5A oligomer (phosphodiester internucleotide linkage) is also included for comparison. L929 cell extracts were incubated in the absence (lane 1) or presence of p3 A4 at 10^-8 M (lane 2), A4 at 10^-5 M (lane 3), ARp *ApApA at 10^-5 M (lane 4), ASp *ApApA at 10^-5 M (lane 5), ApARp *ApA at 10^-5 M (lane 6), ApASp *ApA at 10^-5 M (lane 7), ApApARp *A at 10^-5 M (lane 8) or ApApASp *A at 10^-5 M (lane 9).
FIG. 3B represents the results of a ribosomal RNA cleavage assay performed according to the method of FIG. 2A with 2',5'-phosphorothioate/phosphodiester tetramer 5'-monophosphate derivatives. L929 cell extracts were incubated in the absence (lane 1) or presence of p3 A4 at 10^-8 M (lane 2), pA4 at 10^-6 M (lane 3), pARp *ApApA at 10^-6 M (lane 4), pASp *ApApA at 10^-6 M (lane 5), pApARp *ApA at 10^-8 M (lane 6), pApASp *ApA at 10^-5 M (lane 7), pApApARp *A at 10^-7 M (lane 8) or pApApASp *A at 10^-7 M (lane 9).
Activation of RNase L by the phosphorothioate/phosphodiester trimer and tetramer 2-5A derivatives was also measured in a rRNA cleavage assay using L929 cell extracts according to the method of Kariko et al. (1987), supra, in which extracts of L929 cells were incubated for 1 h at 30° C. in the presence or absence of 2-5A or 2-5A derivative. […] Authentic p3 A3 was active at 1×10^-8 M (FIG. 2A, lane 2). The corresponding 5'-monophosphates, pARp *ApA, pASp *ApA and pApARp *A, activated at 1×10^-7 M, 1×10^-7 M, and 2×10^-9 M, respectively (FIG. 2B, lanes 4-6), as compared with pA3 which was active at 1×10^-6 M (lane 3).

HIV-1 strain IIIB = test: Inhibition of HIV-1-induced syncytia formation (infected centers assay); format: cell-based; conditions: for inhibition of HIV-1-induced syncytia formation: 3×10^-4 M, PBL infected with HIV-1 IIIB, Sup T1 cells, read at 72 h; for inhibition of syncytia formation (in words): 3×10^-4 M (adenosine 9×10^-4 M)
Description: FIG. 5A represents the results of an assay performed according to the method of Henderson et al., Virology 182: 186-198 (1991), indicating the inhibition of HIV-1 (IIIB)-induced syncytia formation by adenosine, 2-5A trimer or tetramer core or 2',5'- phosphorothioate/phosphodiester trimer derivatives: ARp *ApA, ASp *ApA, ApARp *A, ApASp *A, ARp *ApApA, ASp *ApApA, ApARp *ApA, ApASp *ApA, ApApARp *A, ApApASp *A.
FIG. 5B is the results of an assay performed according to the method of FIG. 5A with a 2',5'-phosphorothioate/phosphodiester tetramer derivative of 2-5A core.
The infected centers assay as described by Henderson et al., Virology 182: 186-198 (1991), was used to measure the ability of the phosphorothioate/phosphodiester derivatives of 2-5A trimer and tetramer cores to inhibit HIV-1 induced syncytia formation, an indicator of HIV-1 replication in T cells. Freshly isolated peripheral blood lymphocytes (PBL) were treated with 2-5A or derivatives for 2 h and infected with HIV-1 strain IIIB at a m.o.i. of approximately 0.1. The infected PEL were maintained in RPMI-1640 medium supplemented with 10% (v/v) heat-inactivated fetal calf serum at 37° C. in a humidified 5% CO2 in air atmosphere. After 48 h, the cells were washed twice in Hank's balaned salt solution, serially diluted and seeded into multiple wells of a 96-well microtiter plate. Immediately, 2×10^5 exponentially growing Sup T1 cells were added to each well; Sup T1 cells readily form a syncytium with a cell which is productively infected with HIV-1. The wells were examined daily for the presence of syncytia, using a tissue culture microscope. The first signs of syncytia formation can be seen in 12 h, with some complete syncytia developing by 24 h. Final results were read at 72 h. Each syncytium was counted as a single infected cell. The number of syncytia per seeded cell is determined and expressed as an infected center per infected cell. In the control (no 2-5A derivative added), 100% syncytia formation was equivalent to 12±3 syncytia per 200 HIV-1 infected cells.

[1] = test system: HIV-1 reverse transcriptase; test: HIV-1 reverse transcriptase activity in culture supernatant of infected Sup T1 cells; format: cell-based; conditions: for Percent Inhibition of HIV-1 Reverse Transcriptase: 300 μM (adenosine and adenine 900 μM), 6 h pre-treatment, 96 h post-infection, average of triplicates
Protocol: Sup T1 cells were treated with 2-5A or a phosphorothioate/phosphodiester derivative at 300 μM for 6 hours and then infected with HIV-1 at a multiplicity of infection (M.O.I) of approximately 0.1. Adenosine and adenine were tested at 900 μM. At 96 hours post-infection, culture supernatant was removed and HIV-1 RT activity was assayed in triplicate as described by Henderson et al., Virology 182:186-198 (1991). Briefly in this method, 25 μl of culture supernatant was added to a 50 μl cocktail containing 50 mM Tris (pH 8.0), 20 mM dithiothreitol, 10 mM MgCl2, 60 mM NaCl, 0.05 Nonidet p-40, 5 μg/ml oligodeoxythymidylic acid, 10 μg/ml polyriboadenylic acid, 10 μM deoxythymidine triphosphate and 1 mCi [^32 p]thymidine 5'-triphosphate. The mixture was incubated at 37° C. for 2 hours. Fifty microliters of the cocktail were then spotted onto diethylaminoethyl (DEAE) paper, dried, washed with 2× SSC solution (three times for 10 minutes each time) and 95% ethanol (two times for 5 minutes each time), dried and exposed to radiographic film for 18 to 24 hours at -80° C. The filters were cut and final quantitation was determined by scintillation spectrometry.

Molecule: (PS)-P-thioadenylyl-(2',5')-adenylyl-(2',5')-adenosine [ASp *ApA]
- Hydrolysis Products (serum phosphodiesterases): not hydrolyzed
- % Hydrolysis (serum phosphodiesterases): 0%
- concentration at which RNase L is activated to cleave rRNA to SCP (RNase L): > 1000 nM
- inhibition of HIV-1-induced syncytia formation (HIV-1 strain IIIB): 15%
- Percent Inhibition of HIV-1 Reverse Transcriptase [1]: 56%

Molecule: (PR)-P-thioadenylyl-(2',5')-adenylyl-(2',5')-adenosine [ARp *ApA]
- Hydrolysis Products (serum phosphodiesterases): not hydrolyzed
- % Hydrolysis (serum phosphodiesterases): 0%
- concentration at which RNase L is activated to cleave rRNA to SCP (RNase L): > 1000 nM
- inhibition of HIV-1-induced syncytia formation (HIV-1 strain IIIB): 10%
- Percent Inhibition of HIV-1 Reverse Transcriptase [1]: 32%

Molecule: Nc1ncnc2nc[nH]c12 [adenine, reference compound]
- inhibition of syncytia formation (in words) (HIV-1 strain IIIB): not able to inhibit syncytia formation
- inhibition of HIV-1 RT activity (in words) [1]: did not inhibit HIV-1 RT activity
- Percent Inhibition of HIV-1 Reverse Transcriptase [1]: 4%

Molecule: Adenylyl-(2',5')-(PR)-P-thioadenylyl-(2',5')-adenosine [ApARp *A]
- Hydrolysis Products (serum phosphodiesterases): not hydrolyzed
- % Hydrolysis (serum phosphodiesterases): 0%
- concentration at which RNase L is activated to cleave rRNA to SCP (RNase L): 1000 nM
- inhibition of syncytia formation (in words) (HIV-1 strain IIIB): most efficient inhibitors of HIV-1 induced syncytia formation
- inhibition of HIV-1-induced syncytia formation (HIV-1 strain IIIB): 100%
- Percent Inhibition of HIV-1 Reverse Transcriptase [1]: 31%

Molecule: Nc1ncnc2c1ncn2[C@@H]1O[C@H](CO)[C@@H](O)[C@H]1O [adenosine, reference compound]
- inhibition of syncytia formation (in words) (HIV-1 strain IIIB): did not inhibit syncytia formation
- inhibition of syncytia formation (in words) (HIV-1 strain IIIB; listed as Adenosine): not able to inhibit syncytia formation
- inhibition of HIV-1 RT activity (in words) [1]: did not inhibit HIV-1 RT activity
- Percent Inhibition of HIV-1 Reverse Transcriptase [1]: 0%

Molecule: Adenylyl-(2',5')-(PS)-P-thioadenylyl-(2',5')-adenylyl-(2',5')-adenosine [ApASp *ApA]
- Hydrolysis Products (serum phosphodiesterases): inosine, hypoxanthine; also recorded: ASp *ApA
- % Hydrolysis (serum phosphodiesterases): 50%
- inhibition of HIV-1-induced syncytia formation (HIV-1 strain IIIB): 32%
- Percent Inhibition of HIV-1 Reverse Transcriptase [1]: 42%

Molecule: Adenylyl-(2',5')-adenylyl-(2',5')-(PS)-P-thioadenylyl-(2',5')-adenosine [ApApASp *A]
- Hydrolysis Products (serum phosphodiesterases): inosine, hypoxanthine; also recorded: ApASp *A
- % Hydrolysis (serum phosphodiesterases): 33%
- hydrolysis (in words) (serum phosphodiesterases): degraded from the 5'-terminus; also recorded: hydrolyzed from the 5'-terminus
- inhibition of syncytia formation (in words) (HIV-1 strain IIIB): most efficient inhibitors
- inhibition of HIV-1-induced syncytia formation (HIV-1 strain IIIB): 76%
- Percent Inhibition of HIV-1 Reverse Transcriptase [1]: 62%

Molecule: (PS)-P-thioadenylyl-(2',5')-adenylyl-(2',5')-adenylyl-(2',5')-adenosine [ASp *ApApA]
- Hydrolysis Products (serum phosphodiesterases): inosine, hypoxanthine; also recorded: ASp *A
- % Hydrolysis (serum phosphodiesterases): 50% and 100%
- hydrolysis (in words) (serum phosphodiesterases): rapidly hydrolyzed from the 2',3'-terminus
- inhibition of HIV-1-induced syncytia formation (HIV-1 strain IIIB): 18%
- Percent Inhibition of HIV-1 Reverse Transcriptase [1]: 54%

Molecule: Nc1ncnc2c1ncn2[C@@H]1O[C@H](CO[P@@](O)(=S)O[C@@H]2[C@H](O)[C@@H](COP(=O)(O)O[C@@H]3[C@H](O)[C@@H](COP(=O)(O)O[C@@H]4[C@H](O)[C@@H](CO)O[C@H]4n4cnc5c(N)ncnc54)O[C@H]3n3cnc4c(N)ncnc43)O[C@H]2n2cnc3c(N)ncnc32)[C@@H](O)[C@H]1O [ApApARp *A, Adenylyl-(2'-5')-adenylyl-(2'-5')-(PR)-P-thioadenylyl-(2'-5')-adenosine]
- Hydrolysis Products (serum phosphodiesterases): inosine, hypoxanthine; also recorded: ApARp *A
- % Hydrolysis (serum phosphodiesterases): 30%
- hydrolysis (in words) (serum phosphodiesterases): degraded from the 5'-terminus; also recorded: hydrolyzed from the 5'-terminus
- concentration at which RNase L is activated to cleave rRNA to SCP (RNase L): 10000 nM
- inhibition of syncytia formation (in words) (HIV-1 strain IIIB): most efficient inhibitors
- inhibition of HIV-1-induced syncytia formation (HIV-1 strain IIIB): 90%
- Percent Inhibition of HIV-1 Reverse Transcriptase [1]: 38%

Molecule: (PR)-P-thioadenylyl-(2',5')-adenylyl-(2',5')-adenylyl-(2',5')-adenosine [ARp *ApApA]
- Hydrolysis Products (serum phosphodiesterases): inosine, hypoxanthine; also recorded: ARp *A
- % Hydrolysis (serum phosphodiesterases): 50% and 100%
- hydrolysis (in words) (serum phosphodiesterases): rapidly hydrolyzed from the 2',3'-terminus
- inhibition of HIV-1-induced syncytia formation (HIV-1 strain IIIB): 16%
- Percent Inhibition of HIV-1 Reverse Transcriptase [1]: 57%
